The target in one series is T1, rat mGlu1a receptor (Rattus norvegicus, UniProt P23385).
T1 construct: expressed in transfected cells; host or cells: EBNA cells (transient transfection)
As to the kind of experiment: [Ca2+]i measurement (FLIPR) on mGlu1a transfected EBNA cells. It counts as cell-based. The conditions noted are these: for agonist or antagonist on group I mGlu receptor: mode of action, in words; for EC50: mGlu1a transfected EBNA cells, Fluo-3 AM, antagonists tested against 10 μM glutamate as agonist. The protocol:
cDNA encoding for rat mGlula receptor obtained from Prof.
[Ca^2+]i measurement were performed on mGlu1a transfected EBNA cells after incubation of the cells with Fluo-3 AM (0.5 μM final concentration) for 1 hour at 37° C. followed by 4 washes with assay buffer (DMEM supplemented with Hank's salt and 20 mM HEPES). [Ca^2+]i measurement were done using a fluorometric imaging plate reader (FLIPR, Molecular Devices Corporation, La Jolla, Calif., USA). When compounds were evaluated as antagonists they were tested against 10 μM glutamate as agonist.
The inhibition (antagonists) or activation (agonists) curves were fitted with a four parameter logistic equation giving EC50, IC50and Hill coefficient using the iterative non linear curve fitting software Origin (Microcal Software Inc., Northampton, Mass., USA).

SMILES strings stand for the structures.

T1 sequence (P23385 19-1199): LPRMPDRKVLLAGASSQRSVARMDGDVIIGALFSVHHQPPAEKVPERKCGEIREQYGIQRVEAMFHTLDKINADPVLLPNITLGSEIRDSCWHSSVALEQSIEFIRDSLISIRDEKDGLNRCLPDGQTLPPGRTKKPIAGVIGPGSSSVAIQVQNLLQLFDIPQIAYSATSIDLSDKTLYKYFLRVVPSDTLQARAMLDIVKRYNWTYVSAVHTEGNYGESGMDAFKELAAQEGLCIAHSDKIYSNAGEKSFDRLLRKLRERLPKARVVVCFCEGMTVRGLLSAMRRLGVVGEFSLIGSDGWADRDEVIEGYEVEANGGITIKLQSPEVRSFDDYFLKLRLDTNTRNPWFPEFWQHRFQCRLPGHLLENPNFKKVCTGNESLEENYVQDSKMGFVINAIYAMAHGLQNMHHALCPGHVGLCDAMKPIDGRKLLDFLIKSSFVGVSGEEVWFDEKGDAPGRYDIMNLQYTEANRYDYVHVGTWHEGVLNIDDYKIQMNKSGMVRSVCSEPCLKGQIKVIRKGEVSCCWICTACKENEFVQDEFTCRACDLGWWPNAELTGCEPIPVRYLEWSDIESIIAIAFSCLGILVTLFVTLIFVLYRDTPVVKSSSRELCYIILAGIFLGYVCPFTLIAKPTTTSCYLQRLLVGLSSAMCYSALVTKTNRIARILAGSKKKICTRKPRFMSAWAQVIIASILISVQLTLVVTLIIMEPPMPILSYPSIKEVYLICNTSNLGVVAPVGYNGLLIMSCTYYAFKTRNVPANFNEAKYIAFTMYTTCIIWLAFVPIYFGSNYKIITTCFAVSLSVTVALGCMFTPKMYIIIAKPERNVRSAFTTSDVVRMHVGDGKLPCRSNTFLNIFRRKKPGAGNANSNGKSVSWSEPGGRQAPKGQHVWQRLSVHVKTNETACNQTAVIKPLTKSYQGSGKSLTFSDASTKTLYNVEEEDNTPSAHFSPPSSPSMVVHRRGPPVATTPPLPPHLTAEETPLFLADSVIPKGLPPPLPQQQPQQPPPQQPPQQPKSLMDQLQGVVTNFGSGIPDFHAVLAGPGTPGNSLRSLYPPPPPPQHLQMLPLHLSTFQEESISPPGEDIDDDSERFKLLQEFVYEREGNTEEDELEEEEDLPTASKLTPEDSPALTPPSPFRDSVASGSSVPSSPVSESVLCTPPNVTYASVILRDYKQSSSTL

On to `C#CCNC(=O)C(c1ccccc1)c1ccccc1` [Example 14, 2,2-Diphenyl-N-prop-2-ynyl-acetamide], for which the melting point is 131 °C. In the case of `CCCCCCNC(=O)C(c1ccccc1)c1ccccc1` [Example 9, N-Hexyl-2,2-diphenyl-acetamide], the melting point was 100 °C. `O=C(NCC1CC1)C(c1ccccc1)c1ccccn1` (racemic) [Example 22, (RS)-N-Cyclopropylmethyl-2-phenyl-2-pyridin-2-yl-acetamide]: the “agonist or antagonist on group I mGlu receptor” value (shortened to “agonist or antagonist”) at rat mGlu1a receptor is listed as “antagonistic activity”. `O=C(NCCCC(F)(F)F)C(c1ccccc1)c1ccccc1` [Example 26, 2,2-Diphenyl-N-(4,4,4-trifluoro-butyl)-acetamide]: the melting point came to 166 °C. For the same molecule, at rat mGlu1a receptor, the EC50 turned out to be 15 µM and the “agonist or antagonist” value is “antagonistic activity”. The molecule `CCNC(=O)C(c1ccccc1)c1ccccc1` [Example 12, N-Ethyl-2,2-diphenyl-acetamide] returned a melting point of 87 °C. Turning to `CC(C(=O)NCC1CCC1)(c1ccccc1)c1ccccc1` [Example 25, N-Cyclobutylmethyl-2,2-diphenyl-propionamide], the melting point was 79 °C. Moreover, the “agonist or antagonist” value at rat mGlu1a receptor was “antagonistic activity”. `CC(C)CCNC(=O)C(c1ccccc1)c1ccccc1` [Example 15, N-(3-Methyl-butyl)-2,2-diphenyl-acetamide] registered a melting point of 128 °C.

For `CCOCCNC(=O)C(c1ccccc1)c1ccccc1` [Example 20, N-(2-Ethoxy-ethyl)-2,2-diphenyl-acetamide], the melting point was 83.5 to 86.2 °C.

The molecule `CC(C(=O)NCC1CC1)(c1ccccc1)c1ccccc1` [Example 11, N-Cyclopropylmethyl-2,2-diphenyl-propionamide] displayed a melting point of 380 °C. Further, the “agonist or antagonist” value on rat mGlu1a receptor was “antagonistic activity”. On to `COCCCCNC(=O)C(c1ccccc1)c1ccccc1` [Example 19, N-(4-Methoxy-butyl)-2,2-diphenyl-acetamide], for which the melting point lay within 75.5 to 76.8 °C. This molecule displayed an EC50 on rat mGlu1a receptor of 2.98 µM.

In the case of `CCCCCNC(=O)C(C)(c1ccccc1)c1ccccc1` [Example 4, N-Pentyl-2,2-diphenyl-propionamide], at rat mGlu1a receptor, the concentration for a half-maximal effect (EC50) is 1 µM and the “agonist or antagonist” value is “antagonistic activity”. Consider `O=C(NC1CC1)C(c1ccccc1)c1ccccc1` [Example 7, N-Cyclopropyl-2,2-diphenyl-acetamide], for which the melting point is 292 °C. At rat mGlu1a receptor, this molecule showed an EC50 of 17 µM. In turn, `CCCCCNC(=O)C(c1ccccc1)c1ccccc1` [Example 1, N -Pentyl-2,2-diphenyl-acetamide] displayed a melting point of 101 °C. In the case of `C=CCNC(=O)C(c1ccccc1)c1ccccc1` [Example 13, N-Allyl-2,2-diphenyl-acetamide], the melting point is 186 °C. `O=C(NCC1CC1)C(c1ccccc1)c1ccccc1` [Example 10, N-Cyclopropylmethyl-2,2-diphenyl-acetamide] yielded a melting point of 130 °C.

Turning to `CCCCNC(=O)C(C)(c1ccccc1)c1ccccc1` [Example 6, N-Butyl-2,2-diphenyl-propionamide], the “agonist or antagonist” value on rat mGlu1a receptor is “antagonistic activity”. `CCCCCCCNC(=O)C(c1ccccc1)c1ccccc1` [Example 8, N-Heptyl-2,2-diphenyl-acetamide] returned a melting point of 90 °C.

Turning to `CCCC=CCNC(=O)C(c1ccccc1)c1ccccc1` [Example 16, N-Hex-2-enyl-2,2-diphenyl-acetamide], the melting point was 81 °C. Still for that read-out and setting: for `C#CCCCNC(=O)C(c1ccccc1)c1ccccc1` [Example 28, N-Pent-4-ynyl-2,2-diphenyl-acetamide] the value was 90 °C. `CC(C(=O)NCCCC(F)(F)F)(c1ccccc1)c1ccccc1` [Example 27, 2,2-Diphenyl-N-(4,4,4-trifluoro-butyl)-propionamide] came in with a melting point of 82 °C. Moreover, the “agonist or antagonist” value at rat mGlu1a receptor is recorded as “antagonistic activity”.

As for `CCCNC(=O)C(c1ccccc1)c1ccccc1` [Example 2, 2,2-Diphenyl-N-propyl-acetamide], the melting point worked out at 90 °C. This molecule also returned an EC50 at rat mGlu1a receptor of 2.12 µM. Molecule `CCCNC(=O)C(C)(c1ccccc1)c1ccccc1` [Example 3, 2,2-Diphenyl-N-propyl-propionamide] displayed a melting point of 62 °C. Further, on rat mGlu1a receptor, the EC50 came out at 12.7 µM and the “agonist or antagonist” value is “antagonistic activity”.

The molecule `CCCCNC(=O)C(c1ccccc1)c1ccccc1` [Example 5, N-Butyl-2,2-diphenyl-acetamide] returned a melting point of 96 °C. On the same count and under the same terms, the figure for `CC=CCCCNC(=O)C(c1ccccc1)c1ccccc1` [Example 17, N-Hex-4-enyl-2,2-diphenyl-acetamide] is 85 °C. Consider `CCCOCCNC(=O)C(c1ccccc1)c1ccccc1` [Example 21, 2,2-Diphenyl-N-(2-propoxy-ethyl)-acetamide], for which the melting point lay within 77.8 to 78.9 °C. The molecule further yielded a concentration giving a half-maximal response (EC50) on rat mGlu1a receptor of 3.13 µM. In turn, `COCCCCCNC(=O)C(c1ccccc1)c1ccccc1` [Example 18, N-(5-Methoxy-pentyl)-2,2-diphenyl-acetamide] showed a melting point of 74.2 to 75 °C.

Broadly, the melting point is the temperature of the solid-liquid transition. A word on the EC50: it is the concentration giving half of the maximal effect. Lower therefore signals higher potency in that assay.

The values above are taken from patent US6548522B1, “Method for treating conditions related to the glutamate receptor using carboxylic acid amide derivatives” (Hoffmann-La Roche Inc., priority 1999, dated 2003).
